The subject of assay [1] is NPM/ALK positive SUDHL-1 cells. Put plainly: Tritiated thymidine uptake cell proliferation assay, SUDHL1. In kind it is cell-based. To be noted: Homo sapiens, SU-DHL-1; cell line SUDHL1; read-out: IC50 of cellular proliferation, SUDHL1. The procedure:
Method: Tritiated Thymidine Uptake Cell Proliferation Assay
The following procedure was used with parent untransformed BaF3 cells, BaF3 cells transformed with the oncogenic fusion protein NPM/ALK, NPM/ALK positive SUDHL-1 cells, NPM/ALK positive SUPM2, ALK-negative HL60 cells, NPM/ALK positive KARPAS-299 cells. The parent untransformed BaF3 cells or Alk-negative HL60 cells are used as controls. Cells were seeded in U-bottomed 96-well plates at 10000 cells/well in a volume of 100 μl in supplemented medium. In the case of the parent untransformed BaF3 cells, the medium was supplemented with IL-3. Serial dilutions of inhibitors were added to the appropriate wells and volumes adjusted to 200 μl. Controls were treated with the equivalent volume of vehicle, DMSO, alone. Plates were incubated at 37° C. for 72 h. 3[H]-thymidine (1 μCi/well) was added for the last 16 h of incubation. Cells were harvested on to paper filters and 3[H]-thymidine incorporation was measured using a scintillation counter (1430 MicroBeta, Wallac, Turku, Finland). The 50% inhibitory concentration (IC50) was defined as the concentration of inhibitor, expressed in nanomolar units, that gave a 50% decrease in 3[H]-thymidine uptake compared with controls.
In Table 4 are reported the IC50 of cellular proliferation assays of example 3 versus ALK positive, mutated and negative cell lines.

In another assay the target is T1, DDR2 wild-type (Homo sapiens, UniProt Q16832).
T1 construct: either as full-length or enzymatically active fragments; purchased ProQinase GmbH (Freiburg, Germany)
T1 sequence (Q16832 22-855): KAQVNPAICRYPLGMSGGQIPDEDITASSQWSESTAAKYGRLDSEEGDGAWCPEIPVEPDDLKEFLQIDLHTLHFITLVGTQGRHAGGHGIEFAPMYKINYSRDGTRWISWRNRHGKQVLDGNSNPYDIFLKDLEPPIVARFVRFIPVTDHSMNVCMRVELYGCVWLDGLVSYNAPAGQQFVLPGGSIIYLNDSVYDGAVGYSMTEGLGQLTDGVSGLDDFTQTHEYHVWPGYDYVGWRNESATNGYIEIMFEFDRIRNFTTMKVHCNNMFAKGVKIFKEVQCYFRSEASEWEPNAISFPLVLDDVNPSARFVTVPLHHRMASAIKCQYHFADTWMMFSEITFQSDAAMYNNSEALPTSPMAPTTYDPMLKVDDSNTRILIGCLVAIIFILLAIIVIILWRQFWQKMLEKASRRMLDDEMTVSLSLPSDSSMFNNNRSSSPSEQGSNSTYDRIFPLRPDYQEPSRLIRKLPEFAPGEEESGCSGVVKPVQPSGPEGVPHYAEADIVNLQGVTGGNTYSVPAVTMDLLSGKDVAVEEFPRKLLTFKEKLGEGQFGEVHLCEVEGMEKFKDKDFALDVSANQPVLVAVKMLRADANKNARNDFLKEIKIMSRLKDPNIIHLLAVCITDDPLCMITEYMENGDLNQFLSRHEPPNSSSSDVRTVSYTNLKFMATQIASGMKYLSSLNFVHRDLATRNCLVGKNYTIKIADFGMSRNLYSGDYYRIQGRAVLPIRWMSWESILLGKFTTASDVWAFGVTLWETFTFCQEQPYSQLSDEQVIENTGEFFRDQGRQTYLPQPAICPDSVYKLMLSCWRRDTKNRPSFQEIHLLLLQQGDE
Put plainly: Radiometric protein kinase assay (33PanQuinase Activity Assay), DDR2 wild-type. It is filed as biochemical. To be noted: ATP 1.0 μM. The method, then:
(§1) A proprietary radiometric protein kinase assay (33PanQuinase® Activity Assay) developed by ProQuinase GmbH (Freiburg, Germany) was used for measuring the kinase activity of selected protein kinases. All assays were performed in FlashPlates™ wells 96 Perkin Elmer (Boston, Mass., USA) in a reaction volume of 50 μl. The reaction mixture was obtained in 4 steps in the following order: • 1. 10 μl of a solution of non-radioactive ATP in water; • 2. 25 μl of assay buffer/[γ-^33P]-ATP mixture • 3. 5 μl of test sample in 10% DMSO • 4. 10 μl of enzyme/substrate mixture
(§2) All protein kinases provided by ProQinase were expressed in Sf9 insect cells or in E. coli as recombinant GST-fusion proteins or His-tagged proteins, either as full-length or enzymatically active fragments. […] Kinases from external vendors (CAR=Carna Biosciences Inc.; INV=Life Technologies (Invitrogen Corporation); MIL=Merck-Millipore (Millipore Corporation), were expressed, purified and quality-controlled by virtue of the vendors readings.
(§3) A stock solution of compound of formula (I) was diluted to 5×10-04M/100% DMSO. […] Incorporation of 33Pi (counting of “cpm”) was determined with a microplate scintillation counter (Microbeta, Wallac). […]
(§4) Based on each 10 corresponding residual activities, IC50 values were calculated using Prism 5.04 for Windows (Graphpad, San Diego, Calif.). […]

The next assay has as its target T2, ROS (Homo sapiens, UniProt P08922).
T2 construct: either as full-length or enzymatically active fragments; purchased ProQinase GmbH (Freiburg, Germany)
Briefly: Radiometric protein kinase assay (33PanQuinase Activity Assay), ROS. To be noted: ATP 0.3 μM. In kind it is biochemical. The method, then: as §1, §2, §3, §4

T2 sequence (P08922 1883-2347 limits assumed): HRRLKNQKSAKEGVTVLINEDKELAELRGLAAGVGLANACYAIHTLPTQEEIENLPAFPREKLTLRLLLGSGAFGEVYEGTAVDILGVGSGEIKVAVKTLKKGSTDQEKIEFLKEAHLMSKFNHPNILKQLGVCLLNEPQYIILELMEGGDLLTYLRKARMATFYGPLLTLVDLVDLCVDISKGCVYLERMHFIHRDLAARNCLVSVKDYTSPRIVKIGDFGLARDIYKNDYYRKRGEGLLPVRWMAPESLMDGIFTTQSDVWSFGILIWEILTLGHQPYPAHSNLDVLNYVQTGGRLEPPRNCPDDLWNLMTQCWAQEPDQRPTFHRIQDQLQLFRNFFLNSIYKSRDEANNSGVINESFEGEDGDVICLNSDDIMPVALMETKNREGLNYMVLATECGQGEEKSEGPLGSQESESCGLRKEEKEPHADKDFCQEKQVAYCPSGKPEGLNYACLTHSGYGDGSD

As to `CN1CCN(c2ccc(C(=O)Nc3n[nH]c4cc(-c5ccc(O)cc5)c(Cc5cc(F)cc(F)c5)cc34)c(NC3CCOCC3)c2)CC1` [Example 3, N-[5-[(3,5-difluorophenyl)methyl]-6-(4-hydroxyphenyl)-1H-indazol-3-yl]-4-(4-methylpiperazin-1-yl)-2-(tetrahydropyran-4-ylamino)benzamide], the IC50 was determined as 36 nM in assay [1], 150 nM against DDR2 wild-type and 160 nM on ROS.

These data come from patent US10336707B2, “Heterocyclic derivatives modulating activity of certain protein kinases” (EUDENDRON S.R.L., priority 2014, dated 2019).
